For one test, the system named is skin cancer cells. The experiment in a line: MTT assay, growth of skin cancer cells. It is filed as cell-based. Conditions: Homo sapiens. On the procedure: (§1) Cells. Human cancer cell lines were obtained from American Type Culture Collection: HTB-9 (bladder), HeLa-S3 (cervix), DU145 (prostate), H460 (lung), MCF-7 (breast), K562 (leukocytes), HCT116 (colon), HepG2 (liver), U2OS (bone), T98G (brain), SK-MEL-5 (Skin) and OVCAR-3 (ovary). The cells were grown in following culture media: HeLa-53, DU145, MCF-7, Hep-G2 and T98G are in MEN (Earle's salts); HTB-9, H460, K562 and OVCAR-3 in RPMI-1640; HCT-116 and U2OS in McCoy-5A. They are supplemented with 10% fetal calf serum, glutamine and antibiotics, and incubated in an incubator with 5% CO2 humidified at 37° C.
(§2) MTT Assay. The procedure for MTT assay followed the method described by Carmichael et al. (1987) with modifications. […] The formazan (product of the reduction of tetrazolium by viable cells) formed and was dissolved with DMSO and the O.D. at 490 nm, and was measured by an ELISA reader. The MTT level of the cells before drug-treatment was also measured (T0). The % cell-growth (% G) is calculated as: % G=(TD−T0/TC−T0)×100(1), where TC or TD represents O.D. readings of control or drug-treated cells. When T0>TD, then the cytotoxicity (LC) expressed as % of the control is calculated as: % LC=(TD−T0/T0)×100(2).
On the technique in general: Tetrazolium assays rely on reduction of a dye to a coloured formazan, in cell work by metabolically active cells.

Test [1] relates to Hey8A cells attached to flasks. The experiment in a line: Inhibition of cell adhesion to flasks, Hey8A. The class given is cell-based, human. Conditions: 5 ug/ml, 5 hours. On the procedure:
(§3) Methods and Results. ES2 or Hey8A cells were plated in T25 flasks with medium containing 5 ug/ml of Xanifolia-Y. Cultures were incubated for 5 hours. Attached cells were removed from flasks by trypsinization and the amounts were counted. Compare to no drug controls, 86±4% of ES2 cells and 67±8% of Hey8A cells were found attached to flasks under this condition. At 5 ug/ml Xanifolia-Y, over 90% of unattached cells are alive as determined by the trypan Blue exclusion assay and by their ability to re-attach to flasks when plating in medium without Xanifolia-Y. However, with 10 ug/ml Xanifolia-Y, less than 40% of cells attached to flasks and many of them are dead cells.
as §3, with “Results:” for “Results.”

Test [2] concerns human ovarian cancer cell lines. The experiment in a line: MTT assay, additional human ovarian cancer cell lines. It is filed as cell-based. Conditions: 10 additional human ovarian cancer cell lines. On the procedure:
Majority of ovarian cancers arise from the surface epithelium of ovary, most of them belong to the histological subtypes of clear cell and serous carcinoma. We obtained 10 more human ovarian carcinoma cell-lines of these histological subtypes for these studies. The inhibition activity exerted by Xanifolia-Y was determined with MTT assay.

For a further test, the system named is (lung)H460 cells. The experiment in a line: MTT assay H460. Conditions: Homo sapiens, NCI-H460. The class given is cell-based. On the procedure: as §1, §2

Structures are written as SMILES. In brackets after ≈: the same amount, converted by molar mass. Read-outs that look alike come from different tables or passages of the source.

As a reminder, the IC50 is the midpoint of a concentration-inhibition curve. In the case of `C/C=C(/C)C(=O)O[C@H]1[C@H](OC(=O)/C(C)=C\C)[C@@]2(CO)C(CC1(C)C)C1=CCC3[C@@]4(C)CC[C@H](O[C@@H]5OC(C(=O)O)[C@@H](O)C(O[C@@H]6O[C@@H](CO)C(O)C6O)C5O[C@@H]5OC(CO)[C@H](O)C(O)C5O)C(C)(C)C4CC[C@@]3(C)[C@]1(C)[C@@H](O)[C@H]2O` (stereo partly drawn) [Xanifolia-Y, 3-O-[β-D-galactopyranosyl (1→2)]-α-L-arabinofuranosy (1→3)-β-D-glucuronopyranosyl-21,22-O-diangeloyl-3β, 15α, 16α, 21β, 22α, 28-hexahydroxyolean-12-ene], the IC50 with skin cancer cells (FIG. 3C, purified compound, read-out: IC50, inhibition of growth of skin cancer cells) was 0.23 µg/mL (≈ 0.202 µM); in the test with skin cancer cells (read-out: IC50 on skin cells), 12 µg/mL (≈ 10.5 µM); in test [2], 2 to 12 µM; in test [2] (Homo sapiens), 2 to 10 µM; with (lung)H460 cells, 7.5 µg/mL (≈ 6.57 µM). In addition, the “cells attached to flasks, compared to no drug controls” value in test [1] amounted to 67±8%.

The values above are taken from US10213451B2, “Methods and compounds for modulating the secretion or expression of adhesion proteins or angiopoietins of cells” (PACIFIC ARROW LIMITED, priority 2004, dated 2019).
